Experimental data: US20020111274A1, “1-alkyl-3-[1-(substituted phenyl) benzotriazol-6-yl] uracils” (BASF Aktiengesellschaft, priority 2000, published 2002)

Columns and labels:
Parameters in all cases: scale not given here
AMBEL Ragweed, Common [1] = experiment: Postemergence herbicidal evaluation, AMBEL; format: in vivo, Ambrosia artemisifolia, L.; conditions: postemergence spray, rated about two-three weeks after treatment
Summary of the method: (§1)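 Plants are raised for roughly two weeks, then treated postemergence with compound dispersed in acetone/water (80/20) plus 1.0% seed oil adjuvant, at rates of about 0.006 kg to 0.400 kg per hectare. After greenhouse care, damage is scored two to three weeks later.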

GLXMAW Soybean, Williams [2] = experiment: Postemergence herbicidal evaluation, GLXMAW; format: in vivo, Glycine max, (L.) Merr. cv Williams; conditions: postemergence spray, rated about two-three weeks after treatment
Summary of the method: as §1

ORYSAT Rice, Tebonnet [3] = experiment: Postemergence herbicidal evaluation, ORYSAT; format: in vivo, Oryza sativa, (L.); conditions: postemergence spray, rated about two-three weeks after treatment
Summary of the method: as §1

AMBEL Ragweed, Common [4] = experiment: Preemergence herbicidal evaluation, AMBEL; format: in vivo, Ambrosia artemisifolia, L.; conditions: preemergence
Summary of the method: (§2)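 Preemergence soil spray: aqueous acetone, ~0.013–0.800 kg/ha, applied right after sowing (seed/potting-soil mix over ~1 in soil). Greenhouse, routine watering. Scored 4–5 wk post-treatment on a rating scale.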

ECHOG Barnyardgrass [5] = experiment: Preemergence herbicidal evaluation, ECHOG; format: in vivo, Echinochloa crus-galli, (L.) Beau; conditions: preemergence
Summary of the method: as §2

ZEAMX Corn, Field [6] = experiment: Preemergence herbicidal evaluation, ZEAMX; format: in vivo, Zea mays, L. (Sammel-Bezeichnung); conditions: preemergence
Summary of the method: as §2

[7] = system: IPOHE Morningglory, Ivyleaf; experiment: Postemergence herbicidal evaluation, IPOHE; format: in vivo, Ipomoea hederacea, (L.) Jacq.; conditions: postemergence spray, rated about two-three weeks after treatment
Summary of the method: as §1

GALAP Galium = experiment: Preemergence herbicidal evaluation, GALAP; format: in vivo, Galium aparine; conditions: preemergence
Summary of the method: as §2

ORYSAT Rice, Tebonnet [8] = experiment: Preemergence herbicidal evaluation, ORYSAT; format: in vivo, Oryza sativa, (L.); conditions: preemergence
Summary of the method: as §2

[9] = system: IPOHE Morningglory, Ivyleaf; experiment: Preemergence herbicidal evaluation, IPOHE; format: in vivo, Ipomoea hederacea, (L.) Jacq.; conditions: preemergence
Summary of the method: as §2

ABUTH Velvetleaf [10] = experiment: Preemergence herbicidal evaluation, ABUTH; format: in vivo, Abutilon theophrasti, Medic.; conditions: preemergence
Summary of the method: as §2

SETVI Foxtail, Green = experiment: Postemergence herbicidal evaluation, SETVI; format: in vivo, Setaria viridis, (L.) Beau; conditions: postemergence spray, rated about two-three weeks after treatment
Summary of the method: as §1

GLXMAW Soybean, Williams [11] = experiment: Preemergence herbicidal evaluation, GLXMAW; format: in vivo, Glycine max, (L.) Merr. cv Williams; conditions: preemergence
Summary of the method: as §2

ZEAMX Corn, Field [12] = experiment: Postemergence herbicidal evaluation, ZEAMX; format: in vivo, Zea mays, L. (Sammel-Bezeichnung); conditions: postemergence spray, rated about two-three weeks after treatment
Summary of the method: as §1

CASOB Sicklepod [13] = experiment: Preemergence herbicidal evaluation, CASOB; format: in vivo, Cassia obtusifolia, L.; conditions: preemergence
Summary of the method: as §2

ECHOG Barnyardgrass [14] = experiment: Postemergence herbicidal evaluation, ECHOG; format: in vivo, Echinochloa crus-galli, (L.) Beau; conditions: postemergence spray, rated about two-three weeks after treatment
Summary of the method: as §1

CASOB Sicklepod [15] = experiment: Postemergence herbicidal evaluation, CASOB; format: in vivo, Cassia obtusifolia, L.; conditions: postemergence spray, rated about two-three weeks after treatment
Summary of the method: as §1

ABUTH Velvetleaf [16] = experiment: Postemergence herbicidal evaluation, ABUTH; format: in vivo, Abutilon theophrasti, Medic.; conditions: postemergence spray, rated about two-three weeks after treatment
Summary of the method: as §1

[17] = system: CHEAL Lambsquarters, Common; experiment: Postemergence herbicidal evaluation, CHEAL; format: in vivo, Chenopodium album, L.; conditions: postemergence spray, rated about two-three weeks after treatment
Summary of the method: as §1

Compound: Cc1ccc(O)c(-n2nnc3cc(F)c(-n4c(=O)cc(C(F)(F)F)n(C)c4=O)cc32)c1 [Example 31, 3-[5-Fluoro-1-(2-Hydroxy-5-Methylphenyl)-1H-1,2,3-Benzotriazol-6-yl]-1-Methyl-6-(Trifluoromethyl)-2,4(1H,3H)-(Pyrimidinedione)]
- Postemergence herbicidal rating AMBEL (AMBEL Ragweed, Common [1]; 0.008 kg/ha): 0.0
- Postemergence herbicidal rating AMBEL (AMBEL Ragweed, Common [1]; 0.016 kg/ha): 0.0
- Postemergence herbicidal rating AMBEL (AMBEL Ragweed, Common [1]; 0.032 kg/ha): 0.0
- Postemergence herbicidal rating AMBEL (AMBEL Ragweed, Common [1]; 0.062 kg/ha): 3.0
- Postemergence herbicidal rating GLXMAW (GLXMAW Soybean, Williams [2]; 0.008 kg/ha): 3.5
- Postemergence herbicidal rating GLXMAW (GLXMAW Soybean, Williams [2]; 0.016 kg/ha): 3.5
- Postemergence herbicidal rating GLXMAW (GLXMAW Soybean, Williams [2]; 0.032 kg/ha): 4.5
- Postemergence herbicidal rating GLXMAW (GLXMAW Soybean, Williams [2]; 0.062 kg/ha): 5.0
- Postemergence herbicidal rating ORYSAT (ORYSAT Rice, Tebonnet [3]; 0.008 kg/ha): 1.0
- Postemergence herbicidal rating ORYSAT (ORYSAT Rice, Tebonnet [3]; 0.016 kg/ha): 1.0
- Postemergence herbicidal rating ORYSAT (ORYSAT Rice, Tebonnet [3]; 0.032 kg/ha): 1.5
- Postemergence herbicidal rating ORYSAT (ORYSAT Rice, Tebonnet [3]; 0.062 kg/ha): 1.5
- AMBEL herbicidal rating (AMBEL Ragweed, Common [4]; rate 0.008 kg/ha): 0.0
- AMBEL herbicidal rating (AMBEL Ragweed, Common [4]; rate 0.016 kg/ha): 0.0
- AMBEL herbicidal rating (AMBEL Ragweed, Common [4]; rate 0.032 kg/ha): 0.0
- AMBEL herbicidal rating (AMBEL Ragweed, Common [4]; rate 0.062 kg/ha): 0.0
- AMBEL herbicidal rating (AMBEL Ragweed, Common [4]; rate 0.125 kg/ha): 0.0
- ECHCG herbicidal rating (ECHOG Barnyardgrass [5]; rate 0.008 kg/ha): 0.0
- ECHCG herbicidal rating (ECHOG Barnyardgrass [5]; rate 0.016 kg/ha): 0.0
- ECHCG herbicidal rating (ECHOG Barnyardgrass [5]; rate 0.032 kg/ha): 0.0
- ECHCG herbicidal rating (ECHOG Barnyardgrass [5]; rate 0.062 kg/ha): 0.0
- ECHCG herbicidal rating (ECHOG Barnyardgrass [5]; rate 0.125 kg/ha): 0.0
- ZEAMX herbicidal rating (ZEAMX Corn, Field [6]; rate 0.008 kg/ha): 0.0
- ZEAMX herbicidal rating (ZEAMX Corn, Field [6]; rate 0.016 kg/ha): 0.0
- ZEAMX herbicidal rating (ZEAMX Corn, Field [6]; rate 0.032 kg/ha): 0.0
- ZEAMX herbicidal rating (ZEAMX Corn, Field [6]; rate 0.062 kg/ha): 0.0
- ZEAMX herbicidal rating (ZEAMX Corn, Field [6]; rate 0.125 kg/ha): 0.0
- Postemergence herbicidal rating IPOHE ([7]; 0.008 kg/ha): 1.0
- Postemergence herbicidal rating IPOHE ([7]; 0.016 kg/ha): 2.0
- Postemergence herbicidal rating IPOHE ([7]; 0.032 kg/ha): 4.0
- Postemergence herbicidal rating IPOHE ([7]; 0.062 kg/ha): 4.0
- GALAP herbicidal rating (GALAP Galium; rate 0.008 kg/ha): 0.0
- GALAP herbicidal rating (GALAP Galium; rate 0.016 kg/ha): 0.0
- GALAP herbicidal rating (GALAP Galium; rate 0.032 kg/ha): 0.0
- GALAP herbicidal rating (GALAP Galium; rate 0.062 kg/ha): 0.0
- GALAP herbicidal rating (GALAP Galium; rate 0.125 kg/ha): 0.0
- ORYSAT herbicidal rating (ORYSAT Rice, Tebonnet [8]; rate 0.008 kg/ha): 0.0
- ORYSAT herbicidal rating (ORYSAT Rice, Tebonnet [8]; rate 0.016 kg/ha): 0.0
- ORYSAT herbicidal rating (ORYSAT Rice, Tebonnet [8]; rate 0.032 kg/ha): 0.0
- ORYSAT herbicidal rating (ORYSAT Rice, Tebonnet [8]; rate 0.062 kg/ha): 0.0
- ORYSAT herbicidal rating (ORYSAT Rice, Tebonnet [8]; rate 0.125 kg/ha): 0.0
- IPOHE herbicidal rating ([9]; rate 0.008 kg/ha): 0.0
- IPOHE herbicidal rating ([9]; rate 0.016 kg/ha): 0.0
- IPOHE herbicidal rating ([9]; rate 0.032 kg/ha): 0.0
- IPOHE herbicidal rating ([9]; rate 0.062 kg/ha): 0.0
- IPOHE herbicidal rating ([9]; rate 0.125 kg/ha): 0.0
- ABUTH herbicidal rating (ABUTH Velvetleaf [10]; rate 0.008 kg/ha): 0.0
- ABUTH herbicidal rating (ABUTH Velvetleaf [10]; rate 0.016 kg/ha): 0.0
- ABUTH herbicidal rating (ABUTH Velvetleaf [10]; rate 0.032 kg/ha): 0.0
- ABUTH herbicidal rating (ABUTH Velvetleaf [10]; rate 0.062 kg/ha): 0.0
- ABUTH herbicidal rating (ABUTH Velvetleaf [10]; rate 0.125 kg/ha): 3.0
- Postemergence herbicidal rating SETVI (SETVI Foxtail, Green; 0.008 kg/ha): 0.0
- Postemergence herbicidal rating SETVI (SETVI Foxtail, Green; 0.016 kg/ha): 0.0
- Postemergence herbicidal rating SETVI (SETVI Foxtail, Green; 0.032 kg/ha): 0.0
- Postemergence herbicidal rating SETVI (SETVI Foxtail, Green; 0.062 kg/ha): 5.0
- GLXMAW herbicidal rating (GLXMAW Soybean, Williams [11]; rate 0.008 kg/ha): 0.0
- GLXMAW herbicidal rating (GLXMAW Soybean, Williams [11]; rate 0.016 kg/ha): 0.0
- GLXMAW herbicidal rating (GLXMAW Soybean, Williams [11]; rate 0.032 kg/ha): 0.0
- GLXMAW herbicidal rating (GLXMAW Soybean, Williams [11]; rate 0.062 kg/ha): 0.0
- GLXMAW herbicidal rating (GLXMAW Soybean, Williams [11]; rate 0.125 kg/ha): 0.0
- Postemergence herbicidal rating ZEAMX (ZEAMX Corn, Field [12]; 0.008 kg/ha): 3.5
- Postemergence herbicidal rating ZEAMX (ZEAMX Corn, Field [12]; 0.016 kg/ha): 3.5
- Postemergence herbicidal rating ZEAMX (ZEAMX Corn, Field [12]; 0.032 kg/ha): 4.5
- Postemergence herbicidal rating ZEAMX (ZEAMX Corn, Field [12]; 0.062 kg/ha): 4.5
- CASOB herbicidal rating (CASOB Sicklepod [13]; rate 0.008 kg/ha): 0.0
- CASOB herbicidal rating (CASOB Sicklepod [13]; rate 0.016 kg/ha): 0.0
- CASOB herbicidal rating (CASOB Sicklepod [13]; rate 0.032 kg/ha): 0.0
- CASOB herbicidal rating (CASOB Sicklepod [13]; rate 0.062 kg/ha): 0.0
- CASOB herbicidal rating (CASOB Sicklepod [13]; rate 0.125 kg/ha): 0.0
- Postemergence herbicidal rating ECHCG (ECHOG Barnyardgrass [14]; 0.008 kg/ha): 0.0
- Postemergence herbicidal rating ECHCG (ECHOG Barnyardgrass [14]; 0.016 kg/ha): 0.0
- Postemergence herbicidal rating ECHCG (ECHOG Barnyardgrass [14]; 0.032 kg/ha): 0.0
- Postemergence herbicidal rating ECHCG (ECHOG Barnyardgrass [14]; 0.062 kg/ha): 3.0
- Postemergence herbicidal rating CASOB (CASOB Sicklepod [15]; 0.008 kg/ha): 0.0
- Postemergence herbicidal rating CASOB (CASOB Sicklepod [15]; 0.016 kg/ha): 0.0
- Postemergence herbicidal rating CASOB (CASOB Sicklepod [15]; 0.032 kg/ha): 0.0
- Postemergence herbicidal rating CASOB (CASOB Sicklepod [15]; 0.062 kg/ha): 0.0
- Postemergence herbicidal rating ABUTH (ABUTH Velvetleaf [16]; 0.008 kg/ha): 0.0
- Postemergence herbicidal rating ABUTH (ABUTH Velvetleaf [16]; 0.016 kg/ha): 0.0
- Postemergence herbicidal rating ABUTH (ABUTH Velvetleaf [16]; 0.032 kg/ha): 2.0
- Postemergence herbicidal rating ABUTH (ABUTH Velvetleaf [16]; 0.062 kg/ha): 4.0
- Postemergence herbicidal rating CHEAL ([17]; 0.008 kg/ha): 0.0
- Postemergence herbicidal rating CHEAL ([17]; 0.016 kg/ha): 0.0
- Postemergence herbicidal rating CHEAL ([17]; 0.032 kg/ha): 0.0
- Postemergence herbicidal rating CHEAL ([17]; 0.062 kg/ha): 0.0
